According to US20260216166A1, “COMPOUND FOR TREATMENT OF ERECTILE DYSFUNCTION” (Initiator Pharma A/S, priority 2023, published 2026):
“Also recorded” adds a separate entry of the source. Read-outs that look alike come from different tables or passages of the source.

Columns and labels:
[1] = system: sperm count and motility; assay: Semen analysis after repeat single oral doses in male subjects with ED; type: in vivo, human; settings: 5 mg or 10 mg, four weekly doses; Day -7 versus Week 4
Procedure: (§1) On Day-7, and at the Week 1 (Day 1), Week 2, Week 3, Week 4 and Follow-up visits, all groups were asked to complete the IIEF-15 questionnaire. Group 2 was asked to complete a Visual Stimulation Assessment using a RigiScan Plus Monitor on Day-7, Week 1 (Day 1) and Week 4. Group 2 was also required to provide blood samples for pharmacokinetic assessment on Week 1 (Day 1) and Week 4. Group 3 was required to provide semen samples on Day-7 and Week 4.
(§2) Efficacy was assessed through the International Index of Erectile Function (IIEF)-15 questionnaire. The change from baseline in responses to questions of the IIEF-15 questionnaire, including questions regarding erectile function, orgasmic function, sexual desire, intercourse satisfaction and overall satisfaction domain scores, was determined at different time points of the study. RigiScan assessments during the stimulus assessment, and sperm count and motility by semen sample collection was used for efficacy evaluation. Safety was assessed through AE reporting, 12-lead ECG, vital signs, physical examinations and clinical laboratory evaluations. Pharmacokinetics was assessed by blood sampling.

[2] = Phase II single oral dose pharmacokinetics in male patients with ED; type: in vivo; settings: human, plasma, 10 mg single oral dose; for Tmax: male, po, 10 mg
Procedure: The study was an exploratory Phase II, randomised, placebo-controlled, double-blind, crossover study, investigating the effects of a single oral dose of IP2015 on erectile function in males with ED. A dose level of 10 mg was selected. Patients were enrolled into two cohorts. Both cohorts participated in two periods (Period 1 and Period 2) and received a single dose of IP2015 and a single dose of placebo.
The IP2015 at a dose of 10 mg or matched placebo was administered once on the morning of Day 1 (in Period 1 and Period 2) as an oral solution in the fasted state. The dose was taken with 240 ml of water at room temperature. Subjects/patients were fasted overnight prior to dosing until 4 hours postdose. Water was allowed ad libitum except for 1 hour before and 1 hour after dosing.
The study also evaluated the plasma PK concentrations and parameters including but not limited to; AUC0-t, AUC0-∞, Cmax, tmax and T½ in male patients with ED. Blood samples for the determination of plasma concentrations of IP2015 were collected at predose, and 1, 4, 8 (post-stimulus challenge), and 24 hours postdose in each treatment period. The exploratory endpoint was the possible relationship between plasma PK levels and PD response as measured by RigiScan data.
Plasma samples for the determination of concentrations of IP2015 were analysed by using a validated liquid chromatography-tandem mass spectrometry method. The RigiScan Plus Monitor was used for efficacy during the stimulus challenge.
(§3) Safety parameters were listed and summarised using descriptive statistics. Pharmacokinetic parameter estimates were calculated using noncompartmental methods. Pharmacokinetic data were listed for each subject/patient and summarised by descriptive statistics.

[3] = system: healthy male subjects; assay: Phase I ascending single oral dose safety and tolerability in healthy male subjects; type: in vivo, human
Procedure: The study was a Phase I, randomised, double-blind, placebo-controlled, ascending single oral dose, safety, tolerability, pharmacokinetic (PK) and pharmacodynamics (PD) study of IP2015 in healthy male subjects.
Each subject received one oral dose of IP2015 or matched placebo. The starting dose of IP2015 was 0.01 mg in Cohort 1. The dose level was to be escalated to a maximum of 0.05 mg in Cohort 2 and a maximum of 0.2 mg in Cohort 3. The doses in the remaining five cohorts were to be determined based on the dose escalation criteria. In every cohort, no more than 2 subjects were dosed on the first dosing day (1 active; 1 placebo) such that no more than 1 subject received an active IP2015 dose for the first time at each dose level.
The doses used in each cohort were as follows: • Cohort 1-0.01 mg • Cohort 2-0.05 mg • Cohort 3-0.2 mg • Cohort 4-0.6 mg • Cohort 5-1.8 mg • Cohort 6-5.4 mg • Cohort 7-16.2 mg • Cohort 8-10 mg
The study evaluated the clinical safety data from adverse event (AE) reporting, 12-lead electrocardiogram (ECG), cardiac telemetry, vital signs (standing and supine blood pressure (BP), heart rate (HR), oral temperature and clinical laboratory evaluations (chemistry, haematology, urinalysis) and physical examinations in healthy male subjects.
as §3

[4] = system: rat corpus cavernosum strips; assay: Isometric tension of isolated rat corpus cavernosum strips
Procedure: For functional studies in corpus cavernosum strips, the penis was removed by cutting the crura corpora cavernosa at the point of adhesion to the lower pubic bone, and the corpora cavernosa were then dissected free. The penis was submerged immediately in ice-cold (4° C.) PSS. The tunica albuginea was carefully opened from its proximal extremity of the corpus cavernosum towards the penile shaft and the erectile tissue within the corpus cavernosum was microsurgically dissected free. Change in isometric tension of corpus cavernosum strips (0.5×0.5×3 mm) were investigated in a tissue organ bath system (750TOBS, Danish Myotechnology, Aarhus, Denmark). Silk ligatures were applied at both ends of the strip preparations, which were then suspended between two L-formed metal prongs in thermostatically controlled organ baths (5 ml, 37° C.) containing PSS aerated with a mixture of 5% CO2 in air (pH 7.4). The bath fluid was routinely changed every 20 min and replaced with fresh PSS, also kept at 37° C. During an equilibration period of 60 min, tension was adjusted until a mean stable tension of 1.2 mN was obtained, as described earlier.
To test the contractility of the preparations, they were exposed to a potassium physiological saline solution (KPSS) of 125 mM and phenylephrine (10^-6 M), after each contraction acetylcholine was administrated to check endothelium-dependent relaxations.
To investigate the effect of IP2015 on corpus cavernosum strips, the drug (10 9-3×10^-4 M) was administered either in preparations at baseline tension or contracted with phenylephrine (10^-6 M) in the absence or presence of L-NOARG (10 4 M), a NO synthase inhibitor, sildenafil (10^-7 M), a PDE5 inhibitor, a dopamine D1 receptor antagonist, SCH23390, and a dopamine D2 receptor antagonist, clozapine (10^-6 M). The effect of vehicle was also investigated.

[5] = Plasma concentrations after repeat single oral doses in male subjects with ED; type: in vivo, human; settings: 5 mg and 10 mg; Week 1 and Week 4
Procedure: as §1, §2

COc1cc2ccc(OC3CC4CCC(C3)N4)cc2oc1=O (stereo not shown) [IP2015, 7-[(8-azabicyclo[3.2.1]octan-3-yl)oxy]-3-methoxy-chromen-2-one]
sperm count, motility, or morphology [1]: did not have negative effects on sperm count, motility, or morphology
Cmax [2]: 15.7 ng/mL
AUC(0-t) ([2]; read-out: mean AUC0-t): 287 ng·h/mL
Tmax ([2]; read-out: median tmax): 4 h
Tmax ([2]; read-out: tmax range): 1 to 8.53 h
incidence of TEAEs ([3]; 0.01 mg to 10 mg dose range): lower incidence of treatment-emergent adverse effects (TEAEs) compared to higher doses; also recorded: relatively low; also recorded: lower side effects than doses of 16.2 mg
mean ECG parameters ([3]; 0.01 mg to 10 mg dose range): no significant treatment- or dose-related trends
vital sign values ([3]; 0.01 mg to 10 mg dose range): no significant treatment- or dose-related trends
subjects with sustained tachycardia for several hours ([3]; 16.2 mg): 2
incidence of side effects ([3]; 16.2 mg compared to 0.01 mg to 10 mg): increased at 16.2 mg compared to the 0.01 mg to 10 mg dose range
subjects reporting at least one TEAE ([3]; 16.2 mg dose group (all subjects)): 4
standing pulse rate ([3]; 16.2 mg, 2, 3, 4, 6, 8, 10 and 12 hours postdose): increases from baseline
supine pulse rate ([3]; 16.2 mg, 6, 8 and 10 hours postdose): increases from baseline
heart rate (ECG) ([3]; 16.2 mg, 8 and 12 hours postdose): increases from baseline
haematology, serum biochemistry or urinalysis data ([3]; healthy males, single oral doses): no significant treatment- or dose-related trends
total TEAEs ([3]; in the 40 subjects who received IP2015, 0.01-16.2 mg): 32
subjects experiencing TEAEs ([3]; of the 40 subjects who received IP2015, 0.01-16.2 mg): 16
discontinuation due to a TEAE ([3]; whole Phase I study): no subjects discontinued due to a TEAE
severity of TEAEs ([3]; whole Phase I study): majority of events were mild in severity
relaxation of corpus cavernosum strips ([4]; added at basal tension, increasing concentrations): concentration-dependently induced relaxation; also recorded: induced concentration-dependent relaxations; also recorded: induces relaxations
IP2015 relaxation in preparations with and without endothelium ([4]; corpus cavernosum strips, n=5): observed in preparations with endothelium but not in preparations without endothelium
relation of plasma concentrations to dose [5]: linear relation of plasma concentrations to dose
